Laboratory results: ChEMBL document CHEMBL4257493, “Discovery of 7-hydroxyaporphines as conformationally restricted ligands for beta-1 and beta-2 adrenergic receptors” (Medchemcomm, 2018)

Target: Beta-2 adrenergic receptor (Homo sapiens, UniProt P07550)
Assay: Displacement of [3H]-CGP-12177 from human beta2-adrenergic receptor

Beta-2 adrenergic receptor, sequence (P07550 whole entry): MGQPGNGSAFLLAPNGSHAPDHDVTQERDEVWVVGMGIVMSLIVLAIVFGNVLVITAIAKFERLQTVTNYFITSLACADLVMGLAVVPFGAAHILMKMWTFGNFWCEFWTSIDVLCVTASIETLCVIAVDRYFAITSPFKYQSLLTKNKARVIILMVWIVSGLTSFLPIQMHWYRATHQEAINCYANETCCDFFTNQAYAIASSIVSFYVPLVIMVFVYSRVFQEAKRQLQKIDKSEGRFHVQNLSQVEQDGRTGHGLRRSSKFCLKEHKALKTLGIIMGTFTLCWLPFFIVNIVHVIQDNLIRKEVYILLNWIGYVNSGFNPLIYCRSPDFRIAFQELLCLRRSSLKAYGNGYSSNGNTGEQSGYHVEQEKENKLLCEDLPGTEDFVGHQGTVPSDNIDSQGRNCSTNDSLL

Work on COc1cc2c(cc1OC)[C@H]([C@H](O)c1ccccc1Cl)NCC2 yielded an IC50 greater than 10 µM.
